Reference: patent US8034812B2, “Imidazopyridazine derivative having kinase inhibitory activity and pharmaceutical agent thereof” (Takeda Pharmaceutical Company Limited, priority 2006, dated 2011)

Molecular target: T1, BRAF (V600E) enzyme (Homo sapiens, UniProt P15056, V600E)
T1 construct: area encoding the BRAF kinase domain region, so that the protein contains an N-terminal Flag; made in house; host or cells: SF-21 insect cells, recombinant baculovirus BAC-V600E
Assay: Determination of BRAF (V600E) kinase inhibitory activity ([γ-32P]ATP, GST-MEK1 (K96R) substrate)
Type: biochemical
Conditions: read-out: BRAF (V600E) kinase inhibitory rate
Procedure: Human BRAF gene was cloned by PCR using human Testis cDNA library (Clontech) as a template. The primer used for PCR was prepared from base sequence (Genbank Accession NM_004333) information of BRAF gene by adding a base sequence encoding flag peptide and a recognition sequence of the restriction enzyme to area encoding the BRAF kinase domain region, so that the protein contains an N-terminal Flag. The primer base sequence is shown below.
The PCR reaction was conducted using Pyrobest (Takara Shuzo Co., Ltd). The obtained PCR product was electrophoresed on agarose gel (1%), the DNA fragment amplified by PCR was recovered from the gel, and then digested with restriction enzymes EcoRI and SalI. The DNA treated with the restriction enzymes was electrophoresed on agarose gel (1%), and the obtained DNA fragment was recovered and ligated to plasmid pFASTBAC1 (Invitrogen) digested with restriction enzymes EcoRI and SalI to give expression plasmid pFB-BRAF, and the base sequence of the insert fragment was confirmed. In addition, mutation was introduced into V600E using a Quick change Site Directed Mutagenesis kit (Stratagene). The nucleotide sequences of the primers used are shown in the following.
SF-21 cells were sown at 1×10^6 cells/mL to Sf-900II SFM medium (1 L, Invitrogen) containing 10% fetal bovine serum (Trace), 50 mg/L Gentamicin (Invitrogen) and 0.1% Pluronic F-68 (Invitrogen), and shaking culture was performed using a 2 L volume Erlenmeyer flask at 27° C., 100 rpm. After culturing for 24 hrs, recombinant baculovirus BAC-V600E (13.4 mL) was added to the mixture, and the mixture was further cultured for 3 days. The culture medium was centrifuged at 2,000 rpm for 5 min to give virus-infected cells. The infected cells were washed with a phosphate buffered saline (Invitrogen), centrifuged under the same conditions, and the cells were preserved at −80° C. The cryopreserved cells were thawed in ice, suspended in buffer A (50 mM Tris buffer (30 mL, pH 7.4) containing 20% glycerol, 0.15 M NaCl) supplemented with Complete Protease Inhibitor (Boehringer), and ruptured 3 times with a Polytron homogenizer (Kinematica) at 20,000 rpm for 30 sec. The ruptured medium was clarified by centrifugation at 40,000 rpm for 30 min and filtered with a 0.45 μm filter. The filtrate was passed through a column packed with Anti-FLAG M2 Affinity Gel (4 mL, Sigma) at a flow rate of about 0.5 mL/min. The column was washed with buffer A, and eluted with buffer A containing 100 μg/mL of FLAG peptide. The buffer of this concentrate was exchanged using NAP25 column (Amersham Bioscience) equilibrated with buffer A and the fractions were cryopreserved at −80° C.
A test compound (2.5 μl) dissolved in dimethyl sulfoxide (DMSO) was added to 37.5 μl of a reaction solution (25 mM HEPES (pH 7.5), 10 mM magnesium acetate, 1 mM dithiothreitol) containing BRAF (V600E) enzyme (30 ng) and recombinant type protein GST-MEK1 (K96R) 250 ng, and the mixture was incubated at room temperature for 10 min. ATP solution (10 μl) (2.5 μM ATP, 0.1 μCi [γ-^32P]ATP) was added to the obtained mixture, and the mixture was reacted at room temperature for 20 min. The reaction was quenched by adding 50 μL of ice-cooled 20% trichloroacetic acid (Wako Pure Chemical Industries, Ltd.). The reaction solution was allowed to stand at 4° C. for 30 min, and the acid-precipitable fraction was transferred to GF/C filter plate (Millipore Corporation) using cell harvester (PerkinElmer). The plate was dried at 45° C. for 60 min, and 40 μL of MicroScinti 0 (PerkinElmer) was added thereto. The radioactivity was measured using TopCount (PerkinElmer). The kinase inhibitory rate (%) of the test compound was calculated by the following formula: Inhibitory rate(%)=(1−(count of test compound−blank)÷(control−blank))×100
The count of the solution reacted without addition of the compound was used as a “control”, and the count of the solution without the compound and enzyme was used as a “blank”. […]

T1 sequence (P15056 457-717 V600E limits assumed): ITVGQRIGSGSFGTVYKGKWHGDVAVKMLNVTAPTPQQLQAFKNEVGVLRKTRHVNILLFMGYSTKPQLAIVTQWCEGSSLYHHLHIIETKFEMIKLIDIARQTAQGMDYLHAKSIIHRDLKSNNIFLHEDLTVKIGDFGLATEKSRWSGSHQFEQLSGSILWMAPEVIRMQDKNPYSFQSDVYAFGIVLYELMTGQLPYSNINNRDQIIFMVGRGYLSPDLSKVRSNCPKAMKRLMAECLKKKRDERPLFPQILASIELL

Structure (SMILES)	inhibition at 1 µM
O=C(Nc1cccc(Oc2ccc3nc(NC(=O)C4CC4)cn3n2)c1)Nc1cccc(C(F)(F)F)c1 [Example 431, N-{6-[3-({[3-(trifluoromethyl)phenyl]carbamoyl}amino)phenoxy]imidazo[1,2-b]pyridazin-2-yl}cyclopropanecarboxamide]	≥ 90%
CN(C)CC(=O)Nc1cn2nc(Oc3cccc(NC(=O)c4cccc(C(F)(F)F)c4)c3)ccc2n1 [Example 398, N-[3-({2-[(N,N-dimethylglycyl)amino]imidazo[1,2-b]pyridazin-6-yl}oxy)phenyl]-3-(trifluoromethyl)benzamide]	≥ 90%
O=C(Nc1cccc(Sc2ccc3nc(NC(=O)C4CC4)cn3n2)c1)c1cccc(C(F)(F)F)c1 [Example 427, N-[3-({2-[(cyclopropylcarbonyl)amino]imidazo[1,2-b]pyridazin-6-yl}thio)phenyl]-3-(trifluoromethyl)benzamide]	≥ 90%
CNc1nccc(Nc2cn3nc(Oc4cccc(NC(=O)c5cccc(C(F)(F)F)c5)c4)ccc3n2)n1 [Example 70, N-{3-[(2-{[2-(methylamino)pyrimidin-4-yl]amino}imidazo[1,2-b]pyridazin-6-yl)oxy]phenyl}-3-(trifluoromethyl)benzamide]	≥ 90%
